Experimental data: patent publication US4687773A, “(+)-N-N-propylnorapomorphine and selective limbic activity” (priority 1985, dated 1987)
Like-named read-outs stand apart in the source and are kept apart here.

Key:
Dopamine Receptors [1] = type: binding, calf; details: ligand [3H]ADTN (0.5 nM)
Dopamine Receptors [2] = type: binding, calf; details: ligand [3H]APO (0.5 nM)
[3] = system: dopamine (DA) receptors in the limbic system; assay: Locomotor activity (spontaneous or aroused by (-)APO / (-)NPA), electronic activity monitor; type: in vivo, rat; details: Table 4; (+)APO 3.0 mg/kg s.c. after (-)APO 1.0 mg/kg
[4] = system: dopamine (DA) receptors in the limbic system; assay: as above; type: in vivo, rat; details: for Locomotion: Table 4
Description: (§1) Activity: Overall motor activity was measured by use of the self-recording Stoelting electronic activity monitor method described previously by Stewart, Campbell, Sperk, and Baldessarini^9. Total activity is obtained by setting monitor sensitivity so as to detect both locomotion and small movements (such as grooming, sniffing, and chewing) as would be prominent in stereotyped responses that tend to diminish locomotion and increase sniffing, licking, and chewing movements. Locomotor activity is detected selectively by setting monitor sensitivity to detect large, locomotor movements, and to minimize smaller movements already described.
Rats (mean N=6 per condition) were tested for locomotor activity for 60 min following a single dose of (-)APO (0.3 mg/kg, SC), or its vehicle ("placebo" condition). The S(+) isomers were administered in a range of doses from 0 or 0.1 to 30 mg/kg, SC immediately following injection of (-)APO or its vehicle. Data are presented in FIG. 2 as mean EAM activity counts per hour SEM. In that figure, the dashed line labeled "control" represents the mean activity of rats given vehicle only and no aporphine (SD values are indicated by parallel light lines above and below the control mean).
Test agents (11substituted-N--propylnoraporphine isomers were given at a
dose of 3 mg/kg, ip (in 2 ml/kg) just prior to (-)apomorphine (APO, at 0.
mg/kg, ip, in 1 ml/kg) to rats (N = 6) tested in an electronic activity

[5] = system: dopamine (DA) receptors in the basal ganglia (corpus striatum); assay: Stereotyped licking and gnawing behavior rating in the rat; type: in vivo; details: Table 4
Source text: Stereotypy: The mean stereotyped licking and gnawing behavioral rating scheme developed by Tarsy and Baldessarini^8 was used. […]
Stereotypy scores were rated for one hour as described in […]

[6] = system: dopamine (DA) receptors in the limbic system and basal ganglia; assay: Total motor activity, electronic activity monitor (EAM); type: in vivo, rat; details: Table 4
Description: as §1
All data presented in the Tables below are expressed as the mean results from 4-6 rats per condition, ±S.E.M. Stereotypy is expressed in rating units (maximum=3.0) and activity is expressed in arbitrary units of percent change, derived from EAM counts per unit time, relative to activity in control (saline) animals set at zero.
All the posttreatment doses of (+)APO were 3.0 mg/kg, s.c. The data
All posttreatment doses of (+)NPA were 3 mg/kg, s.c. The data are similar

[7] = system: DA in the corpus striatum (basal ganglia); assay: Head posture (contralateral head deviation) after intrastriatal DA; type: in vivo, rat; details: intrastriatal DA 16 μg; aporphine 3 mg/kg systemic (route not given)
[8] = system: DA in the limbic system (nucleus accumbens septi); assay: Arousal (locomotor activity) induced by DA injected into nucleus accumbens septi; type: in vivo, rat; details: for activity counts (arousal induced by 16 μg DA in accumbens): 30 min, DA control 238 ± 38
Description: An experiment shown in Table 9 involves testing the effects of S(+) isomers of apomorphine (APO) and N-propylnorapomorphine (NPA) given systemically (intraperitoneally, ip), as well as S(+) methylenedioxy-N-propylnorapomorphine (MDO-NPA) given ip or orally (po, by orogastric intubation). […]. […] Activity was monitored for 30 min after injection of DA into the brain, which was done at 10 min after systemic dosing with an S(+)aporphine test compound.
Data are mean activity counts ± SEM (N = 6) for rats given DA into the
medial accumbens after pretreatment with an inhibitor of monoamine oxidas
(MA0), and monitored on EAM for 30 min (aporphine given 10 min before DA
systemicallyintraperitoneally [ip] or orally [po].

[9] = (+)APO 3.0 mg/kg s.c. after (-)APO 0.3 mg/kg
[10] = (+)APO 3.0 mg/kg s.c. after (-)APO 3.0 mg/kg
[11] = (+)APO 3.0 mg/kg s.c., (-)APO 0
[12] = (+)APO 3.0 mg/kg s.c. after (-)APO 1.0 mg/kg

Question: What does the source list for `CCCN1CCc2cccc3c2C1Cc1ccc(O)c(O)c1-3` (racemic) [(±)-NPA, (RS)-N-n-Propylnorapomorphine]?
Answer: IC50 (Dopamine Receptors [1]): 3.5 nM; IC50 (Dopamine Receptors [2]): 5 nM

Question: What does the source list for `CN1CCc2cccc3c2[C@@H]1Cc1ccc(O)c(O)c1-3` [(+)APO, S(+) isomers of apomorphine (APO)]?
Answer: Locomotion [3]: 43.0 ± 5.2 percent change; Locomotion [4, 9]: 36.2 ± 4.3 percent change; Locomotion [4, 10]: 42.1 ± 6.3 percent change; Locomotion [4, 11]: -0.84 ± 0.22 percent change; ID50 to reduce the locomotor activating actions of (-)APO ([4]; s.c., (-)APO 0.3 mg/kg): 4 mg/kg; ID50, spontaneous locomotor arousal ([4]; spontaneous activity): > 50 mg/kg; Stereotypy Score [5, 9]: 0.89 ± 0.36 rating units; Stereotypy Score [5, 12]: 1.92 ± 0.21 rating units; Stereotypy Score [5, 10]: 2.93 ± 0.32 rating units; Stereotypy Score [5, 11]: 0.32 ± 0.62 rating units; Total Activity [6, 9]: 36.2 ± 0.92 percent change; Total Activity [6, 12]: 44.6 ± 0.75 percent change; Total Activity [6, 10]: 62.0 ± 0.48 percent change; Total Activity [6, 11]: -0.62 ± 0.33 percent change; Contralateral Head Deviation, Percent of Total [7]: 57.2% of Total; Contralateral Head Deviation, Time [7]: 412 ± 53 s; activity counts (arousal induced by 16 μg DA in accumbens) ([8]; 0.3 mg/kg ip): 246 ± 41 activity counts; activity counts (arousal induced by 16 μg DA in accumbens) ([8]; 1.0 mg/kg ip): 190 ± 37 activity counts; activity counts (arousal induced by 16 μg DA in accumbens) ([8]; 3.0 mg/kg ip): 125 ± 19 activity counts; ED50 ([8]; Rattus norvegicus, ip, DA 16 μg in accumbens, read-out: ID50 (the source's name)): 4 mg/kg; ID50 ([8]; ip, DA 16 μg in accumbens): 3.6 mg/kg
